Assay results taken from patent US11040937B2, “Amide derivative” (TOHOKU UNIVERSITY, priority 2014, dated 2021).
Where two headings read alike, the source gives them in different places.

Tests used:
A549/OPNluc cells = assay: WST assay for cell growth / cell viability; type: cell-based, human; conditions: Homo sapiens, A549, A549/OPNluc cells, 48±4 hours, WST-1; read-out: IC50 (concentration for 50% inhibition of cell growth)
Text: (§1) A reporter vector pOPN1-luc obtained by the insertion of a human OPN promoter sequence (−765 to 23) into the multiple cloning site of pGL-3 basic vector (Promega) expresses luciferase when transfected into animal cells. The pOPN1-luc was transfected into a human non-small cell lung cancer-derived cell line A549 together with pPUR (Clontech) that expresses a puromycin resistance gene (puromycin-N-acetyl-transferase gene), and then cells expressing luciferase which could grow a puromycin-supplemented medium were selected. The selected cells were named “A549/OPNluc cells” and used for observation of luciferase expression inhibitory effect under control of OPN promoter, as described below.
(§2) A test compound was added to a culture containing A549/OPNluc cells to observe its influence on the amount of luciferase expressed in the cells. Here, it can be considered that when the test compound has a cell cytotoxity or cell growth inhibitory effect, the total expression level of luciferase is reduced due to a reduction in the number of living cells that depends on the concentration of the test compound, and therefore the luciferase expression inhibitory effect of the test compound under control of OPN promoter cannot be properly evaluated. For this reason, WST assay for quantification of cell proliferation ability or cell viability by colorimetric measurement was firstly performed to determine IC50 (concentration for 50% inhibition of cell growth) of the test compound for cell growth. Then, luciferase activity measurement was performed to determine EC50 (concentration for 50% inhibition of luciferase expression) of the test compound for luciferase expression under control of OPN promoter.
A549/OPNluc cells were suspended in DMEM medium containing 10% fetal calf serum (FCS) and 1% penicillin/streptomycin (P/S) at 3×10^4 cells/mL to obtain a cell suspension, and then the cell suspension was dispensed into each well of a 96-well plate in an amount of 100 μL. In order to perform the assay in triplicate, wells were prepared for a control group, and 3 wells were prepared for each test compound-treated group at each concentration. After the dispensation, the 96-well plate was incubated in a CO2 incubator (at 37° C. and 5% CO2) for 24±4 hours.
The present compound was dissolved in dimethylsulfoxide (DMSO) to obtain a 50 mmol/L solution, and the compound solution was stored at −80° C. The compound solution was diluted with DMSO in 2-fold dilution series (usually, in the range of 0.31 mmol/L to 20 mmol/L) to prepare test compound solutions whose concentration varied by two fold for WST assay.
Each solution of only DMSO (control) and the diluted test compound (sample) was dispensed into each well containing the cell suspension in an amount of 0.5 μL (200-fold dilution). The solution in each well was mixed with a vortex mixer, and then the 96-well plate was incubated in a CO2 incubator (at 37° C. and 5% CO2) for 48±4 hours. Then, Premix WST-1 Reagent (TAKARA BIO INC.) was added in an amount of 10 μL to each well. The solution in each well was mixed with a vortex mixer, and then the 96-well plate was incubated at 37° C. and 5% CO2. After 60 minutes or 120 minutes, the absorbance values (450 nm) were measured with a microplate reader (Bio-Rad; Benchmark or Thermo Scientific; Varioskan Flash).
The absorbance values of the control wells and the sample wells at each concentration were input into an Excel file to determine the percentages of absorbance values of the sample wells at each concentration with to the average absorbance value of the control wells. From the determined values, a fitted curve was determined by the method of least squares to calculate IC50.

[1] = system: human OPN promoter (pOPN1-luc) in A549/OPNluc cells; assay: Luciferase assay: luciferase expression under control of OPN promoter; type: cell-based; conditions: Homo sapiens
Text: as §1, §2
The same steps as in the above-mentioned WST assay were performed in which each solution of only DMSO (control) or the diluted test compound (sample) was added in an amount of 0.5 μL to each well containing the cell suspension to achieve 200-fold dilution, and the solution in each well was mixed with a vortex mixer, and the 96-well plate was incubated in a CO2 incubator (at 37° C. and 5% CO2) for 48±4 hours.
Luciferase Assay Substrate (hereinafter referred to as “LAS”) supplied in Luciferase Assay Systems (Promega: Cat #E1500) was dissolved in Luciferase Assay Buffer (LAB) to prepare a luciferase reagent. 5×Cell Culture Lysis Reagent (hereinafter referred to as “CCLR”) was diluted by 5 times with water to prepare 1×CCLR.
After the incubation for 48±4 hours, the medium in each well was completely removed, and 1×CCLR was dispensed into each well in an amount of 50 μL. The 96-well plate was allowed to stand at room temperature for 30 minutes, and then 1×CCLR in each well was used as an assay sample. The luciferase reagent (100 μL) was placed in a tube for chemiluminescence measurement, and the assay sample (20 μL) was added to the tube and mixed with the luciferase reagent to measure chemiluminescence (Relative Luminescence Intensity: RLU) using TB 20/20 (Promega) or GloMax 20/20 (Promega).
The RLU values of the control wells and the sample wells at each concentration were input into an Excel file, and the percentages of RLU values of the sample wells at each concentration to the average RLU value of the control wells were determined. From these values, a fitted curve was determined by the method of least squares to calculate EC50. Also, the percentages of RLU values of the sample wells at each concentration to the average RLU value of the control wells were divided by the percentages of absorbance values of the compounds in WST assay at the same concentrations as those of this assay (to the control), and a fitted curve was determined from the calculated values by the method of least squares to calculate corrected EC50.

[2] = A549, A549/OPNluc cells, 48±4 hours, read-out: EC50 (concentration for 50% inhibition of luciferase expression)
[3] = A549, EC50 corrected for decrease in viable cells (RLU % divided by WST %), read-out: corrected EC50

Structure (SMILES) | IC50 (A549/OPNluc cells) [µM] | EC50 [1, 2] [µM] | EC50 [1, 3] [µM]
O=C(Nc1cccc(Oc2ccc(Cl)cc2)c1)C1CCN(C(=O)c2ccc(O)cc2)C1 (centres unmarked) [Compound 32, N-(3-(4-chlorophenoxy)phenyl)-1-(4-hydroxyphenylcarbonyl)pyrrolidine-3-carboxamide] | 24.7 | 8 | 9.3
O=C(CCNC(=O)c1ccncc1)Nc1cccc(Oc2ccc(Cl)cc2)c1 [Compound 37, N-(3-(3-(4-Chlorophenoxy)phenylamino)-3-oxopropyl)pyridine-4-carboxamide] | 60.1 | 15.6 | 20.9
O=C(CCNC(=O)c1ccsc1)Nc1cccc(Oc2ccc(Cl)cc2)c1 [Compound 36, N-(3-(3-(4-Chlorophenoxy)phenylamino)-3-oxopropyl)thiophene-3-carboxamide] | 43.3 | 22 | 31.2
COc1cccc(C(=O)CCNC(=O)c2ccc(O)cc2)c1N [Compound 12, N-(3-(2-Amino-3-methoxyphenyl)-3-oxopropyl)-4-hydroxybenzamide] | > 200 | > 200 | –
O=C(Nc1cccc(Oc2ccc(Cl)cc2)c1)C1CN(C(=O)c2ccc(O)cc2)C1 [Compound 31, N-(3-(4-chlorophenoxy)phenyl)-1-(4-hydroxyphenylcarbonyl)azetidine-3-carboxamide] | 26.9 | 9.3 | 11
COc1ccc(Oc2ccccc2C(=O)NCCNC(=O)c2ccc(O)cc2)cc1 [Compound 22, N-(2-(2-(4-Methoxyphenoxy)benzoylamino)ethyl)-4-hydroxybenzamide] | > 100 | 42.2 | 50.4
COc1ccc(C(=O)NCCC(=O)c2cccc(Oc3ccc(O)cc3)c2N)cc1 [Compound 4, N-(3-(2-Amino-3-(4-hydroxyphenoxy)phenyl)-3-oxopropyl)-4-methoxybenzamide] | 67.1 | 27.6 | 37
COc1ccc(Oc2cccc(C(=O)NCCNC(=O)c3ccc(O)cc3)c2)cc1 [Compound 21, N-(2-(3-(4-Methoxyphenoxy)benzoylamino)ethyl)-4-hydroxybenzamide] | 95.9 | 16.1 | 17
COc1ccc(Oc2cccc(NC(=O)CCCNC(=O)c3ccc(O)cc3)c2)cc1 [Compound 27, N-(4-(3-(4-Methoxyphenoxy)phenylamino)-4-oxobuthyl)-4-hydroxybenzamide] | 71.9 | 19.8 | 26.6
O=C(Nc1cccc(Oc2ccc(Cl)cc2)c1)C1CCCN1C(=O)c1ccc(O)cc1 (centres unmarked) [Compound 34, N-(3-(4-Chlorophenoxy)phenyl)-1-(4-hydroxyphenylcarbonyl)pyrrolidine-2-carboxamide] | 55.1 | 24.9 | 32.9
O=C(CCNC(=O)c1ccc(O)cc1)Nc1cccc(Oc2ccc(Cl)cc2)c1 [Compound 24, N-(3-(3-(4-Chlorophenoxy)phenylamino)-3-oxopropyl)-4-hydroxybenzamide] | 29.4 | 7.5 | 11.4
